A melting point compilation (Tetko et al.; mined from patent text by program, amines drawn as free bases though some values may be those of a salt)

`CC(=O)N1CCC(C(=O)N(CCCN2CCC(Cc3ccccc3)CC2)c2ccc(C)c(Cl)c2)CC1` gave a melting point of 96 to 99 °C. With `CN1C(=O)CC[C@]2(C)c3ccc(Sc4ccc5cc(F)ccc5n4)cc3CC[C@@H]12` the melting point was 152 to 155 °C. In the case of `Oc1c(Cl)cc(NCCCCCCBr)cc1Cl`, the melting point is reported as 182 to 183 °C. Compound `CCC(=O)SCC(Cc1ccccc1)C(=O)Nc1cccc(C(=O)O)c1C` (stereo not given) has a melting point of 163 to 165 °C. With `C#CCOC(=O)C1=C(C)NC(C)=C(C(=O)OCC)C1c1ccccc1C` (stereo not given) the melting point was 129 °C. `CCc1c(-c2ccc(O)cc2)c2ccc3ccc(COCCN4CCCCC4)c1n32` gave a melting point of 68 to 75 °C. For `N#Cc1cccc2c1NCCC2`, the melting point was 75 to 76 °C. `COc1ccc2nc(-c3ccc(Cl)cc3)cn2c1` gave a melting point of 148 to 149 °C. Compound `CC(C)(C)NS(=O)(=O)c1ccccc1CCOS(C)(=O)=O` has a melting point of 106 to 108 °C. In the case of `O=C(Nc1ccc(Cl)cc1)C(O)c1ccccc1Cl` (stereo not given), the melting point is reported as 120 °C. For `COC(=O)C1CC(C#N)(c2ccc(OC)c3c2OC(C)(C)O3)CCC1=O` (stereo not given), the melting point was 146 to 147 °C. Compound `CCN1CCCNC1=C[N+](=O)[O-]` has a melting point of 126 to 127 °C. `CCCC(=O)Nc1n[nH]c2cc(-c3ccc(OC(F)(F)F)cc3)ccc12` gave a melting point of 234 °C. Work on `O=c1cc(-c2ccc(CO)cc2)oc2ccc(O)cc12` yielded a melting point of 262 to 265 °C. With `COc1cncc(-c2cncc(OC3SCC(O)C(O)C3O)c2)c1` (stereo not given) the melting point was 193 °C. `Clc1ccc2c(c1)C(NC1=NCCS1)CCC2` (stereo not given) showed a melting point of 164 to 166 °C. `O=c1c(C(O)c2ccc(Cl)cc2)c(Cl)nc2n1CCS2` (stereo not given) gave a melting point of 175 to 177 °C. `COC(=O)c1cc(Cl)cc(C(=O)OC)n1` gave a melting point of 132 to 134 °C. `COCc1c(C(=O)OC(C)C)ncc2c1c1c(OCc3ccccc3)cccc1n2CC(=O)N(C)Cc1ccccc1` showed a melting point of 155 to 157 °C. With `CCOc1ccccc1C1(CC(=O)N2CCN(c3ccncc3)CC2)C(=O)N(S(=O)(=O)c2ccc(OC)cc2OC)c2ccc(Cl)cc21` (stereo not given) the melting point was 225 °C. `CNC(=O)c1cc2c(Oc3ccc(-c4noc(C(F)(F)F)n4)cc3)cncc2s1` gave a melting point of 174 to 176 °C. For `Cn1cnc(S(=O)(=O)Nc2cccc(C=C3c4ccccc4CCc4ccccc43)c2)c1`, the melting point was 257 °C. Work on `CNC(=O)C(=O)CCCCCCSc1nc(-c2ccccc2)cs1` yielded a melting point of 107 to 108 °C. Compound `CC1CCc2ccc(Cl)c3c(=O)c(C(=O)O)cn1c23` (stereo not given) has a melting point of 220 to 222 °C. Compound `O=C(O)C(=O)c1ccc(OCc2ccc3ccccc3c2)cc1` has a melting point of 145 to 146 °C. For `COc1ccc(CN2C(=O)[C@@H](Cl)[C@H]2[C@@H]2COC(C)(C)O2)c(OC)c1`, the melting point was 140 to 142 °C. For `CCCCCc1cc2c(nc(O)n2CCCNS(C)(=O)=O)c(N)n1`, the melting point was 174 to 176 °C. For `CCCCNC(=O)c1ccc(Cl)c(-n2nc(CCCC)n(Cc3ccc(Br)cc3F)c2=O)c1`, the melting point was 114 to 116 °C. Work on `COCCNC(=O)c1ccc(SC)c(N)c1` yielded a melting point of 66 to 68 °C. `CCn1c(=O)c2c(nc(/C=C/c3ccc(OC(C)=O)c(OC)c3)n2C)n(CC)c1=O` gave a melting point of 194 to 195 °C. For `Ic1c[nH]c2ncccc12`, the melting point was 201 to 204 °C. Work on `OCCCCc1cc(-c2ccc(C(F)(F)F)cc2)no1` yielded a melting point of 68 to 69 °C. In the case of `COc1cc2c(cc1Nc1ncc(Cl)c(N[C@H]3[C@@H](C(N)=O)[C@@H]4C=C[C@H]3C4)n1)CCN(Cc1ncco1)CC2`, the melting point is reported as 110 to 119 °C. In the case of `CN(C(=O)c1ccc2nonc2c1)C1CCCOC1` (stereo not given), the melting point is reported as 134 to 135 °C. `NNC(=S)Nc1ccc2ccccc2c1` gave a melting point of 174 to 176 °C. Work on `COc1ccc(CONC(=O)Cn2nnnc2S)cc1` yielded a melting point of 167 to 168 °C. `COc1ccc(-c2c3c(cc4ccc5c(c24)OCO5)C(=O)OC3)cc1OC` gave a melting point of 221 to 223 °C. `c1ccc(CCCNc2ccc(-c3cc(-c4ccc(NCCCc5ccccc5)cc4)cc(-c4ccc(NCCCc5ccccc5)cc4)c3)cc2)cc1` gave a melting point of 105 °C. For `CCCNC(=O)c1ccc(-c2ccc3nnn(C(C)(C)c4ccc5ncccc5c4)c3n2)cc1F`, the melting point was 162 to 164 °C. For `CCc1cc(C(=O)OC)n(C)n1`, the melting point was 162 to 165 °C.
